For data set [1], the target named is T1, Solute carrier organic anion transporter family member 1B3 (Homo sapiens, UniProt Q9NPD5).
T1 sequence (Q9NPD5 whole entry): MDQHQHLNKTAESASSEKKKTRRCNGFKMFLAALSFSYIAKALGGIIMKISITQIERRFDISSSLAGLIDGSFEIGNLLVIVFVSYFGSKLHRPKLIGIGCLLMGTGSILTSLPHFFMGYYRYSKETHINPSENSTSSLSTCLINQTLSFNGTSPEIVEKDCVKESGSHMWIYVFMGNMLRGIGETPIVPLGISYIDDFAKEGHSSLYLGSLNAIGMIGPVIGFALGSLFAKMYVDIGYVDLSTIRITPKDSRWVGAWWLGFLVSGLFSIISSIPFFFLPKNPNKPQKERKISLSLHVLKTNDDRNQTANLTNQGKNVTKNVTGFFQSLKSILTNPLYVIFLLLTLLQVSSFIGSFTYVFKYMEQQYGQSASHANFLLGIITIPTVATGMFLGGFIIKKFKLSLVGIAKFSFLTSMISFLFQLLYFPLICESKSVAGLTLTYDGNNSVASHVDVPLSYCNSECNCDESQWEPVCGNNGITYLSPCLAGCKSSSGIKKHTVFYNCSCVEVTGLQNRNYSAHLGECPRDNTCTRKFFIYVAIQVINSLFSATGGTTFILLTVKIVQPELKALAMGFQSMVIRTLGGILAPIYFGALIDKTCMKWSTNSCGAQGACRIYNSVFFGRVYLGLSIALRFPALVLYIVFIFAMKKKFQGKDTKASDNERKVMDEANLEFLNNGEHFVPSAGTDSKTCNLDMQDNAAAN
Particulars: chinese hamster, cho, 10 µM.

Data set [2] deals with T2, Solute carrier organic anion transporter family member 1B1 (Homo sapiens, UniProt Q9Y6L6).
T2 sequence (Q9Y6L6 whole entry): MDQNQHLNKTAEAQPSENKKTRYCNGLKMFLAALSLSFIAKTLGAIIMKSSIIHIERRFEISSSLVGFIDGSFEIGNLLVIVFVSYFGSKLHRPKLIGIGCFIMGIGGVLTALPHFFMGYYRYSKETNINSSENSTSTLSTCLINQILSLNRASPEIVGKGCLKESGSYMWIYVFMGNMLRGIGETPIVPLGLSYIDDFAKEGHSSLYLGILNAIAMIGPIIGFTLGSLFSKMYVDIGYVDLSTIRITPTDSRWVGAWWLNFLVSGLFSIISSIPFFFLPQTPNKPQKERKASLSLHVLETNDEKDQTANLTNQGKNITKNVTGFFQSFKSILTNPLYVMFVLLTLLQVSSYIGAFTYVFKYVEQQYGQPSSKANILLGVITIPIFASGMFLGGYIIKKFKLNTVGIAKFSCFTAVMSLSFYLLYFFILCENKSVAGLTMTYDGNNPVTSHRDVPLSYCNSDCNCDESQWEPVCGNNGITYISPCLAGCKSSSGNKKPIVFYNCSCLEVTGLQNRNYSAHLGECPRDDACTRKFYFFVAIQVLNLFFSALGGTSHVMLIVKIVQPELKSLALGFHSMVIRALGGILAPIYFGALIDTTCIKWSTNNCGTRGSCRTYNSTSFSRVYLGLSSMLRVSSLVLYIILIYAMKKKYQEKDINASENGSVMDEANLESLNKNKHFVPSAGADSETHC
Particulars: chinese hamster, cho, 10 µM.

In the case of `O=C(/C=C(\O)c1ccccc1)c1ccccc1O` [2',beta-DIHYDROXYCHALCONE], the results for the residual activity in data set [1] and in data set [2] were 97.75% and 95.04%, respectively.
The corresponding values for `COc1ccc(-c2coc3cc(O)ccc3c2=O)c(OC)c1` [2'-METHOXYFORMONETIN] are 83.66% and 74.56%.
In the same order, the values of `COc1ccc(C(=O)c2ccc(O)cc2)c(O)c1O` [2,3,4'-TRIHYDROXY-4-METHOXYBENZOPHENONE] are 112.1% and 114.8%.
The corresponding values for `CCOc1ccc(C(=O)c2ccc(O)c(O)c2O)cc1` [2,3,4-TRIHYDROXY-4'-ETHOXYBENZOPHENONE] are 99.48% and 134.1%.
Consider `CCOc1ccc(C(=O)c2ccc(OC)c(O)c2O)cc1` [2,3-DIHYDROXY-4-METHOXY-4'-ETHOXYBENZOPHENONE], for which the results for the residual activity in data set [1] and in data set [2] were 102.2% and 172.8%, respectively.
In the same order, the values of `O=C(O)c1cccc(O)c1O` [2,3-DIHYDROXYBENZOIC ACID] are 84.74% and 94.43%.
`COC(=O)COc1cc(Cl)c(Cl)cc1Cl` [2,4,5-TRICHLOROPHENOXYACETIC ACID, METHYL ESTER]: the values for the residual activity in data set [1] and in data set [2] were 116.4% and 98.01%, respectively.
The corresponding values for `O=C(O)COc1cc(Cl)c(Cl)cc1Cl` [2,4,5-TRICHLOROPHENOXYACETIC ACID] are 96.75% and 95.54%.
In the same order, the values of `CC(=O)c1c(O)cc(O)cc1O` [2,4,6-TRIHYDROXYACETOPHENONE] are 92.98% and 72.12%.
As for `COC(=O)COc1ccc(Cl)cc1Cl` [2,4-DICHLOROPHENOXYACETIC ACID, METHYL ESTER], the residual activity in data set [1] is reported as 110%; in data set [2] it was 116.2%.
Regarding `O=C(O)COc1ccc(Cl)cc1Cl` [2,4-DICHLOROPHENOXYACETIC ACID], the residual activity in data set [1] was 104.1%; in data set [2] it was 111.6%.
With `O=[N+]([O-])c1ccc(O)c([N+](=O)[O-])c1` [2,4-DINITROPHENOL], the residual activity in data set [1] came out at 78.36%; in data set [2], 75.05%.
Take `COc1cc(O)c(C)c(O)c1` [2,6-DIHYDROXY-4-METHOXYTOLUENE]: the residual activity in data set [1] is 91.69%; in data set [2], 108.8%.
`COC1=CC(=O)C=C(OC)C1=O` [2,6-DIMETHOXYQUINONE]: the residual activity came out at 101.9% in data set [1] and 115.1% in data set [2].
In the same order, the values of `COc1cccc(OC)c1OCCNCC1COc2ccccc2O1.Cl` (configuration not stated) [2- (2,6-DIMETHOXYPHENOXYETHYL)AMINOMETHYL-1,4-BENZODIOXANE HYDROCHLORIDE (WB 4101)] are 96.02% and 247.1%.
`CC(=O)c1ccc[nH]1` [2-ACETYLPYRROLE]: the results for the residual activity in data set [1] and in data set [2] were 98.29% and 111.7%, respectively.
Regarding `COC1=CC(=O)C(C(=O)c2ccccc2)=CC1=O` [2-BENZOYL-5-METHOXYBENZOQUINONE], the residual activity is 165.6% in data set [1] and 106.8% in data set [2].
The corresponding values for `CCOC(=O)C(=O)C1(C(=O)OCC)Oc2cc(OC)cc(OC)c2C(=O)C1c1ccccc1` (configuration not stated) [2-ETHOXYCARBONYL-2-ETHOXYOXALOYLOXYDIHYDROCHRYSIN DIMETHYL ETHER] are 100.5% and 117%.
The corresponding values for `CCOC(=O)C1(O)Oc2cc(OC)cc(OC)c2C(=O)C1c1ccccc1` (configuration not stated) [2-ETHOXYCARBONYL-2-HYDROXY-5,7-DIMETHOXYISOFLAVANONE] are 104% and 106.9%.
`COc1ccc(C(=O)O)c(O)c1OC` [2-HYDROXY-3,4-DIMETHOXYBENZOIC ACID]: the residual activity stood at 82.78% in data set [1] and 82.39% in data set [2].
As to `CC1(C)CC2C1CCC1(C)OC1CCC2(C)O` (configuration not stated) [2-HYDROXY-5 (6)EPOXY-TETRAHYDROCARYOPHYLLENE], the residual activity in data set [1] came out at 86.53%; in data set [2], 70.41%.
The corresponding values for `CC(C)=CCc1c(O)cc(C)oc1=O` [2-ISOPRENYL-3-HYDROXY-5-METHYL-a-PYRONE] are 115.1% and 101.1%.
The corresponding values for `COc1cccc(/C=C/C(=O)O)c1C(C)C` [2-ISOPROPYL-3-METHOXYCINNAMIC ACID] are 87.92% and 137.6%.
In the same order, the values of `Sc1nc2ccccc2s1` [2-MERCAPTOBENZOTHIAZOLE] are 97.95% and 158.6%.
For the molecule `COC1(C)CCC2OC2(C)CCC2C1CC2(C)C` (configuration not stated) [2-METHOXY-5 (6)EPOXY-TETRAHYDROCARYOPHYLLENE], the residual activity stood at 93.07% in data set [1] and 92.29% in data set [2].
The corresponding values for `COc1c(O)cccc1O` [2-METHOXYRESORCINOL] are 98.72% and 95.14%.
Consider `Cc1[nH]c2ccccc2c1CN(C)C` [2-METHYL GRAMINE], for which the residual activity is recorded as 80.09% in data set [1] and 39.17% in data set [2].
In the same order, the values of `Cc1occc(=O)c1/C=C/O` [2-METHYL-3-HYDROXYETHYLENEPYRAN-4-ONE] are 107% and 96.24%.
The corresponding values for `COc1cc(OC)c2c(=O)c(-c3ccccc3)c(C)oc2c1OC` [2-METHYL-5,7,8-TRIMETHOXYISOFLAVONE] are 98.52% and 115.1%.
On to `C=C1CCC(C2CC(=O)OC2=O)C(=O)CCC2C1CC2(C)C` (configuration not stated) [2-METHYLENE-5-(2,5-DIOXOTETRAHYDROFURAN-3-YL)-6-OXO--10,10-DIMETHYLBICYCLO[7: 2: 0]UNDECANE], for which the results for the residual activity in data set [1] and in data set [2] were 47.58% and 29.82%, respectively.
In the same order, the values of `CCCc1occc(=O)c1/C=C/O` [2-PROPYL-3-HYDROXYETHYLENEPYRAN-4-ONE] are 129.3% and 128.5%.
The corresponding values for `COc1ccc(-c2cc(=O)c3ccccc3o2)cc1OC` [3',4'-DIMETHOXYFLAVONE] are 129.7% and 187.6%.
In the same order, the values of `CC1(O)CC2C(CC1O)C2(C)C` (configuration not stated) [3,4-DIHYDROXYCARANE] are 98.2% and 101%.
Consider `C=C[C@@H](C1=CC(=O)C(OC)=C(OC)C1=O)c1ccccc1` [3,4-DIMETHOXYDALBERGIONE], for which the figures for the residual activity in data set [1] and in data set [2] were 114.1% and 215.8%, respectively.
As for `O=[N+]([O-])c1cc(O)c(O)c([N+](=O)[O-])c1` [3,5-DINITROCATECHOL (OR-486)], the residual activity worked out at 75.38% in data set [1] and 38.63% in data set [2].
In the same order, the values of `COc1c(Cl)ccc(Cl)c1C(=O)O` [3,6 DICHLOROMETHOXYBENZOIC ACID] are 155.5% and 88.8%.
With `COc1ccc2oc(-c3ccccc3)c(OC)c(=O)c2c1` [3,6-DIMETHOXYFLAVONE], the residual activity in data set [1] amounted to 76.93%; in data set [2], 99.01%.
On to `O=c1c(O)c(-c2ccccc2)oc2cc(O)ccc12` [3,7-DIHYDROXYFLAVONE], for which the residual activity is on record as 120.8% in data set [1] and 151.5% in data set [2].
In the same order, the values of `COc1ccc2c(=O)c(OC)c(-c3ccccc3)oc2c1` [3,7-DIMETHOXYFLAVONE] are 144.6% and 59.28%.
In the same order, the values of `CC1(C)CC2C1CCC1(C)OC2(C)CCC1O` (configuration not stated) [3,7-EPOXYCARYOPHYLLAN-6-OL] are 80.05% and 57.88%.
In the same order, the values of `CC12CCC3C(CC3(C)C)C(C)(CCC1=O)O2` (configuration not stated) [3,7-EPOXYCARYOPHYLLAN-6-ONE] are 93.4% and 72.4%.

As usually defined, the residual activity is the signal under treatment as a percentage of the control signal.

The record behind these values is ChEMBL document CHEMBL3039007, “Structure-based identification of OATP1B1/3 inhibitors” (Mol Pharmacol, 2013).
